The record followed here is paper PMC12336824 (The Journal of Biological Chemistry, 2025).

≈ marks a conversion by molar mass, not a printed value.

The subject of the test is V. cholerae Δnqr mutant. Description: microbe, parasite or virus in culture. Format: cell-based.

For the molecule `CC(C)/N=c1\cc2n(-c3ccc(Cl)cc3)c3ccccc3nc-2cc1Nc1ccc(Cl)cc1` [clofazimine], the “resistance of the growth to saturating concentrations of inhibitor” value was “about 40%”. The same molecule came in with an MIC50 (Vibrio cholerae, 8 h) of 23 ± 6 µM (≈ 10.9 µg/mL).
